O=C(O)C(O)c1ccccc1 (racemic)
Details | solubility (mole fraction)
in ethanol, 294.65 K | 0.247
in ethanol, 299.45 K | 0.261
in ethanol, 303.85 K | 0.274
in ethanol, 308.25 K | 0.292
in ethanol, 314.65 K | 0.325
in ethanol, 319.15 K | 0.349
in ethanol, 324.85 K | 0.376
in ethanol, 328.55 K | 0.394
in ethanol, 333.45 K | 0.418
in ethanol, 338.15 K | 0.439
in isopropanol, 293.15 K | 0.213
in isopropanol, 298.15 K | 0.236
in isopropanol, 305.15 K | 0.262
in isopropanol, 308.15 K | 0.272
in isopropanol, 313.15 K | 0.294
in isopropanol, 318.15 K | 0.315
in isopropanol, 323.15 K | 0.338
in isopropanol, 328.15 K | 0.362
in isopropanol, 333.15 K | 0.383
in isopropanol, 338.15 K | 0.41
in methanol, 283.15 K | 0.236
in methanol, 288.15 K | 0.243
in methanol, 293.15 K | 0.256
in methanol, 298.15 K | 0.265
in methanol, 304.65 K | 0.281
in methanol, 308.15 K | 0.293
in methanol, 313.15 K | 0.308
in methanol, 318.15 K | 0.323
in n-propanol, 293.15 K | 0.196
in n-propanol, 298.15 K | 0.213
in n-propanol, 305.35 K | 0.237
in n-propanol, 308.15 K | 0.252
in n-propanol, 313.15 K | 0.275
in n-propanol, 318.15 K | 0.3
in n-propanol, 323.15 K | 0.325
in n-propanol, 328.15 K | 0.347
in n-propanol, 333.15 K | 0.368
in n-propanol, 338.15 K | 0.39
in water, 293.15 K | 0.018
in water, 298.15 K | 0.0233
in water, 303.15 K | 0.037
in water, 308.15 K | 0.0656
in water, 313.15 K | 0.11
in water, 318.15 K | 0.16
in water, 323.15 K | 0.206
in water, 328.15 K | 0.237
in water, 333.15 K | 0.278
in water, 338.15 K | 0.317

— BigSolDB 2.1
